Data published in US20200405696A1, “INHIBITORS OF INDOLEAMINE 2,3-DIOXYGENASE AND/OR TRYPTOPHAN 2,3-DIOXYGENASE” (IDORSIA PHARMACEUTICALS LTD, priority 2018, published 2020).

Legend:
[1] = biological target: T1, Recombinant full-length human IDO1 (Homo sapiens, UniProt P14902); assay: IDO1 enzymatic assay (NFK quantified by LCMS); type: biochemical; conditions: 2 nM enzyme, 5 μM L-tryptophan, pH6.5, 30 minutes pre-incubation at RT; mean values when measured multiple times; read-out: hIDO activity (IC50 in nM)
T1 construct: Recombinant full-length human IDO1 with a N-terminal hexahistidine tag; hexahistidine (His6) (N); made in house; host or cells: E. coli
How it was run: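 IC50 comes from four-parameter logistic fits of duplicate data, with NFK quantified by LCMS and normalized to L-Trp-(indole-d5). Compound (0.5 nM–10 μM) was preincubated 30 min at RT with 2 nM E. coli-expressed IDO1 before a 30 min reaction with 5 μM tryptophan in pH 6.5 buffer containing ascorbate and methylene blue.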

[2] = biological target: T2, Recombinant human TDO comprising amino acids 19-407 (Homo sapiens, UniProt P48775); assay: TDO2 enzymatic assay (NFK quantified by LCMS); type: biochemical; conditions: 15 nM enzyme, 200 μM L-tryptophan, pH7, 30 minutes pre-incubation at RT; mean values when measured multiple times; read-out: hTDO activity (IC50 in nM)
T2 construct: Recombinant human TDO comprising amino acids 19-407 with a N-terminal hexahistidine tag; hexahistidine (His6) (N); made in house; host or cells: E. coli
How it was run: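 NFK formed over 30 min at RT from 200 μM L-tryptophan was measured by LCMS, normalized to d5-tryptophan, after compound (0.5 nM–10 μM, duplicates, 0.6% DMSO) was preincubated 30 min with 15 nM recombinant His-tagged TDO 19-407 in phosphate buffer pH 7. IC50 from four-parameter logistic fit; repeats averaged.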

T1 sequence (P14902 whole entry): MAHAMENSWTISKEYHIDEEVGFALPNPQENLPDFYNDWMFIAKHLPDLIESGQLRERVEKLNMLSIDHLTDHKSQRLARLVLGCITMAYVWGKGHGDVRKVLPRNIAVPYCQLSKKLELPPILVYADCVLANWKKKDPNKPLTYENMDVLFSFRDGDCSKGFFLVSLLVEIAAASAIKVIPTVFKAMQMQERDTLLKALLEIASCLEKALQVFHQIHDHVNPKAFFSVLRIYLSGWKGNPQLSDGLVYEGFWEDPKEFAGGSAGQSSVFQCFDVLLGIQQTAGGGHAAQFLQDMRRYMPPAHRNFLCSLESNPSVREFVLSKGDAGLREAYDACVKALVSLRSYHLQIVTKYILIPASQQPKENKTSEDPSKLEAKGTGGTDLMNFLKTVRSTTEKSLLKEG
T2 sequence (P48775 19-406 limits assumed): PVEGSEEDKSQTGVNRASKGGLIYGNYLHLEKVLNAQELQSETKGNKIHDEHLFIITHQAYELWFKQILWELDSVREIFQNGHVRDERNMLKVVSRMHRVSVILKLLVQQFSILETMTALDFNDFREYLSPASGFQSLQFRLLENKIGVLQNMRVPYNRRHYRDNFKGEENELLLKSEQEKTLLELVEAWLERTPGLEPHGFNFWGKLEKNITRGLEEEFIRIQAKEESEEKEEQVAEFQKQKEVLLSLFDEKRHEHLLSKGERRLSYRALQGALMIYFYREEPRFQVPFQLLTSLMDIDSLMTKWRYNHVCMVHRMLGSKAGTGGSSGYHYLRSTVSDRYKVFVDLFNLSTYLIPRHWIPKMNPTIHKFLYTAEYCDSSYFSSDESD

| SMILES | IC50 [1] [nM] | IC50 [2] [nM] |
| --- | --- | --- |
| CCc1sc2cncn2c1C(O)c1cn(-c2ccc(S(=O)(=O)N(CC)CC)cc2)nn1 (racemic) [Example 243, rac-N,N-Diethyl-4-{4-[(2-ethyl-imidazo[5,1-b]thiazol-3-yl)-hydroxy-methyl]-[1,2,3]triazol-1-yl}-benzenesulfonamide] | 101 | > 10200 |
| COc1ccc(-n2nnc(C(O)c3c(C4CC4)sc4cncn34)c2C)cc1Cl (racemic) [Example 295, rac-[1-(3-Chloro-4-methoxy-phenyl)-5-methyl-1H-[1,2,3]triazol-4-yl]-(2-cyclopropyl-imidazo[5,1-b]thiazol-3-yl)-methanol] | 6.63 | 8840 |
| COc1ccc(-n2cc(C(O)c3c(C=C(C)C)sc4cncn34)nn2)cc1 (racemic) [Example 262, rac-[1-(4-Methoxy-phenyl)-1H-[1,2,3]triazol-4-yl]-[2-(2-methyl-propenyl)-imidazo[5,1-b]thiazol-3-yl]-methanol] | 83.2 | > 10200 |
| CCc1sc2cncn2c1C(O)c1cn(-c2cc(Cl)c(OC)cc2F)nn1 (racemic) [Example 319, rac-[1-(5-Chloro-2-fluoro-4-methoxy-phenyl)-1H-[1,2,3]triazol-4-yl]-(2-ethyl-imidazo[5,1-b]thiazol-3-yl)-methanol] | 3.18 | 4430 |
| CC(C)C(=O)Nc1ccc(-n2cc(C(O)c3c(C4CC4)sc4cncn34)cn2)cc1 (racemic) [Example 246, rac-N-(4-{4-[(2-Cyclopropyl-imidazo[5,1-b]thiazol-3-yl)-hydroxy-methyl]-pyrazol-1-yl}-phenyl)-isobutyramide] | 29.8 | 3800 |
| Cc1sc2cncn2c1C(O)c1cnn(-c2ccccc2)c1 (racemic) [Example 96, rac-(2-Methyl-imidazo[5,1-b]thiazol-3-yl)-(1-phenyl-1H-pyrazol-4-yl)-methanol] | 163 | 2530 |
| OC(c1ccc(-c2ccccc2)s1)c1c(C2CC2)sc2cncn12 (racemic) [Example 164, rac-(2-Cyclopropyl-imidazo[5,1-b]thiazol-3-yl)-(5-phenyl-thiophen-2-yl)-methanol] | 317 | > 10200 |
| COc1ccc(-n2cc(C(O)c3c(C(F)(F)F)sc4cncn34)nn2)cc1 (racemic) [Example 134, rac-[1-(4-Methoxy-phenyl)-1H-[1,2,3]triazol-4-yl]-(2-trifluoromethyl-imidazo[5,1-b]thiazol-3-yl)-methanol] | 11.4 | > 10200 |
| COc1ncc(-n2cc(C(O)c3c(C4CC4)sc4cncn34)nn2)cc1F (racemic) [Example 79, rac-(2-Cyclopropyl-imidazo[5,1-b]thiazol-3-yl)-[1-(5-fluoro-6-methoxy-pyridin-3-yl)-1H-[1,2,3]triazol-4-yl]-methanol] | 7.22 | > 10200 |
| CCc1sc2cncn2c1C(O)c1cn(-c2ccc3[nH]c(=O)oc3c2)nn1 (racemic) [Example 181, rac-6-{4-[(2-Ethyl-imidazo[5,1-b]thiazol-3-yl)-hydroxy-methyl]-[1,2,3]triazol-1-yl}-3H-benzooxazol-2-one] | 7.86 | 4330 |
| CCc1c(C(O)c2c(C3CC3)sc3cncn23)nnn1-c1ccc(OC)cc1 (racemic) [Example 279, rac-(2-Cyclopropyl-imidazo[5,1-b]thiazol-3-yl)-[5-ethyl-1-(4-methoxy-phenyl)-1H-[1,2,3]triazol-4-yl]-methanol] | 13.6 | > 10200 |

More lines, now with the values ahead:

| IC50 [1] [nM] | IC50 [2] [nM] | SMILES |
| --- | --- | --- |
| 13.1 | 4290 | CCc1sc2cncn2c1C(O)c1cn(-c2ccc(NC(C)=O)cc2)nn1 (racemic) [Example 110, rac-N-(4-{4-[(2-Ethyl-imidazo[5,1-b]thiazol-3-yl)-hydroxy-methyl]-[1,2,3]triazol-1-yl}-phenyl)-acetamide] |
| 30.6 | > 10200 | O=C(Nc1ccc(-n2cc(C(O)c3c(C4CC4)sc4cncn34)nn2)cc1)N1CCOCC1 (racemic) [Example 104, rac-Morpholine-4-carboxylic acid (4-{4-[(2-cyclopropyl-imidazo[5,1-b]thiazol-3-yl)-hydroxy-methyl]-[1,2,3]triazol-1-yl}-phenyl)-amide] |
| 9.58 | 6400 | Oc1ccc(-n2cc(C(O)c3c(C4CC4)sc4cncn34)nn2)c(F)c1 (racemic) [Example 208, rac-4-{4-[(2-Cyclopropyl-imidazo[5,1-b]thiazol-3-yl)-hydroxy-methyl]-[1,2,3]triazol-1-yl}-3-fluoro-phenol] |
| 60.6 | > 10200 | CCc1sc2cncn2c1C(O)c1cn(-c2ccc(C3(CO)CC3)cc2)nn1 (racemic) [Example 48, rac-(2-Ethyl-imidazo[5,1-b]thiazol-3-yl)-{1-[4-(1-hydroxymethyl-cyclopropyl)-phenyl]-1H-[1,2,3]triazol-4-yl}-methanol] |
| 2.7 | 1040 | CCc1sc2cncn2c1[C@@H](O)c1cn(-c2ccc(NC(=O)OC)cc2)nn1 [Example 49a, (4-{4-[(R)-(2-Ethyl-imidazo[5,1-b]thiazol-3-yl)-hydroxy-methyl]-[1,2,3]triazol-1-yl}-phenyl)-carbamic acid methyl ester] |
| 10 | > 10200 | N#CCCNC(=O)c1ccc(-n2cc(C(O)c3c(C4CC4)sc4cncn34)nn2)cc1 (racemic) [Example 108, rac-N-(2-Cyano-ethyl)-4-{4-[(2-cyclopropyl-imidazo[5,1-b]thiazol-3-yl)-hydroxy-methyl]-[1,2,3]triazol-1-yl}-benzamide] |
| 18.1 | > 10200 | OC(c1cn(-c2ccc(OCC3CCCCO3)cc2)nn1)c1c(C2CC2)sc2cncn12 (centres unmarked) [Example 143, (2-Cyclopropyl-imidazo[5,1-b]thiazol-3-yl)-{1-[4-(tetrahydro-pyran-2-ylmethoxy)-phenyl]-1H-[1,2,3]triazol-4-yl}-methanol] |
| 10.9 | 2110 | CCc1sc2cncn2c1C(O)c1cn(-c2ccc(NC(=O)OC)cc2)nn1 (racemic) [Example 49, rac-(4-{4-[(2-Ethyl-imidazo[5,1-b]thiazol-3-yl)-hydroxy-methyl]-[1,2,3]triazol-1-yl}-phenyl)-carbamic Acid Methyl Ester] |
| 15.3 | > 10200 | COc1ccc(-n2cc(C(O)c3c(C4CC4)sc4cncn34)nn2)cc1Br (racemic) [Example 290, rac-[1-(3-Bromo-4-methoxy-phenyl)-1H-[1,2,3]triazol-4-yl]-(2-cyclopropyl-imidazo[5,1-b]thiazol-3-yl)-methanol] |
| 74.2 | > 10200 | OC(c1cn(-c2cccc(C(F)(F)F)c2)nn1)c1c(C2CC2)sc2cncn12 (racemic) [Example 5, rac-(2-Cyclopropyl-imidazo[5,1-b]thiazol-3-yl)-[1-(3-trifluoromethyl-phenyl)-1H-[1,2,3]triazol-4-yl]-methanol] |
| 8.8 | > 10200 | O=C(NCc1ccco1)c1ccc(-n2cc(C(O)c3c(C4CC4)sc4cncn34)nn2)cc1 (racemic) [Example 190, rac-4-{4-[(2-Cyclopropyl-imidazo[5,1-b]thiazol-3-yl)-hydroxy-methyl]-[1,2,3]triazol-1-yl}-N-furan-2-ylmethyl-benzamide] |
| 26.3 | > 10200 | CNS(=O)(=O)Nc1ccc(-n2cc(C(O)c3c(C4CC4)sc4cncn34)nn2)cc1 (racemic) [Example 256, rac-4-{4-[(2-Cyclopropyl-imidazo[5,1-b]thiazol-3-yl)-hydroxy-methyl]-[1,2,3]triazol-1-yl}-((N-methylsulfamoyl)amino)-benzene] |
| 8.71 | > 10200 | Nc1ccc(-n2cc(C(O)c3c(C4CC4)sc4cncn34)nn2)cc1Cl (racemic) [Example 278, rac-[1-(4-Amino-3-chloro-phenyl)-1H-[1,2,3]triazol-4-yl]-(2-cyclopropyl-imidazo[5,1-b]thiazol-3-yl)-methanol] |
| 9.7 | > 10200 | O[C@@H](c1cn(-c2ccc(OCC3CC3)cc2)nn1)c1c(C2CC2)sc2cncn12 [Example 35a, (R)-(2-Cyclopropyl-imidazo[5,1-b]thiazol-3-yl)-[1-(4-cyclopropylmethoxy-phenyl)-1H-[1,2,3]triazol-4-yl]-methanol] |
| 40.1 | > 10200 | CCc1cc(-n2cc(C(O)c3c(C4CC4)sc4cncn34)nn2)ccc1O (racemic) [Example 232, rac-4-{4-[(2-Cyclopropyl-imidazo[5,1-b]thiazol-3-yl)-hydroxy-methyl]-[1,2,3]triazol-1-yl}-2-ethyl-phenol] |
| 20.7 | > 10200 | OC(c1cn(-c2ccc(OCC3CCOCC3)cc2)nn1)c1c(C2CC2)sc2cncn12 (racemic) [Example 87, rac-(2-Cyclopropyl-imidazo[5,1-b]thiazol-3-yl)-{1-[4-(tetrahydro-pyran-4-ylmethoxy)-phenyl]-1H-[1,2,3]triazol-4-yl}-methanol] |
| 28.8 | > 10200 | Cc1cccc(-n2cc(C(O)c3c(C4CC4)sc4cncn34)nn2)c1 (racemic) [Example 28, rac-(2-Cyclopropyl-imidazo[5,1-b]thiazol-3-yl)-(1-m-tolyl-1H-[1,2,3]triazol-4-yl)-methanol] |
